“Also recorded” adds a separate entry of the source.
Assays:
[1] = Neuroleptic effect: duration and strength (remarks of Table 2); format: in vivo; details: for Duration (remarks, words): duration of neuroleptic effect; for Duration (remarks, words) / Strength of effect (remarks, words): in words; for Strength of effect (remarks, words): strength of neuroleptic effect
Description: The pharmacological testing of the novel xanthones and thioxanthenes of Formula I consisted of standard and reliable tests. […]

Sedation = details: in words; for b551 compared with piflutixol
[2] = Catalepsy wire mesh, rat, max.; format: in vivo, rats; details: for ED50: Rattus norvegicus, sc, read-out: Catalepsy wire mesh, rat, max. ED50
Protocol: Catalepsy wire mesh, rat, max. (ED50 mg/kg s.c.)
A vertical wire netting (50 cm×49 cm). The meshes (openings) of the netting are square (1 cm×1 cm). The wire diameter is 2 mm. Stop watch. Rats, male, 180-200 g.
The animals are labeled and used in groups of five. The test substance is injected subcutaneously (s.c.) (5 ml/kg) at 4 dose levels selected from the fixed dose scale.
The animals are placed in the middle of the vertical wire netting 60, 120, 180, 240, 300 and 360 minutes after injection of the test compound. The animals are considered cataleptic when they remain immobile during a period of 15 seconds. This cataleptic reaction is designated +. If the rats are "atonic" and passively slide down the wire mesh they are considered not cataleptic. If the animals climb up and down the wire mesh they are nor cataleptic. In both situations the designation - is used.

[3] = Acute toxicity, LD50 in male rats following peroral administration; format: in vivo; details: for LD50 at 168 h: rat, in vivo, po, male rats, p.o., one week after administration, read-out: LD50 p.o. in male rats after 1 week
Protocol: The acute toxicity, as measured by LD50 in male rats following peroral administration, is much lower for Lu 13-135 when compared with piflutixol one week after administration. The figure for Lu 13-135 is >60 mg/kg against 1.5 mg/kg for piflutixol.

[4] = Methylphenidate antagonism (mice biting corrugated paper); format: in vivo; details: Mus musculus, ip
Protocol: Methylphenidate antagonism (ED50 mg/kg i.p.)
Perspex observation cages without bottom and lid, consisting of 5 sections each measuring 12×25×30 cm. White corrugated paper. Mice, male, 18-25 g.
The test substance is given i.p. in the doses 0, 1/8, 1/32 and 1/128 of the determined "i.p. LD50". 3×2 mice are used for each dose level. Two or 24 hours after injection of test substance, methylphenidate, 60 mg/kg, is injected s.c. After administration of methylphenidate the mice are placed in the observation cages, 2 in each cage, where they remain for exactly 1 hour. The cages are placed on corrugated paper, the corrugations facing upwards. It is examined whether the mice have been biting the corrugated paper or not. […] If one or more of the control pairs have not been biting, the test has to be repeated on a new set of mice.
The result is stated in fractions: 0/3, 1/3, 2/3 and 3/3 where 0, 1, 2 and 3 are the number of pairs which have not been biting on receipt of the dose in question.
The results are calculated as the dose (ED50), which causes antagonism in 50% of the test animals.

[5] = Amphetamine antagonism (stereotypy in rats); format: in vivo; details: Rattus norvegicus
[6] = Catalepsy wire mesh, rat, max.; format: in vivo; details: po, rats
[7] = mice, i.p., methylphenidate 60 mg/kg s.c. 2 h after test substance, read-out: Methylphenidate antagonism ED50, 2 h
[8] = mice, i.p., methylphenidate 60 mg/kg s.c. 24 h after test substance, read-out: Methylphenidate antagonism ED50, 24 h

## OCCC1CCN(CC/C=C2/c3ccc(F)cc3Sc3ccc(C(F)(F)F)cc32)CC1 [piflutixol, 2-trifluoromethyl-6-fluoro-9-(3-(4-(2-hydroxyethyl)-1-piperidyl)propylidene)-thioxanthene, reference compound]
[1]
  Duration (remarks, words): most long acting
  Strength of effect (remarks, words): most patent
[1]; remarks column, hours
  Duration: 48 to 72 h
Sedation
  Sedation / sedative effect: very strong sedative effects
[2]; 6 h
  ED50: 0.05 mg/kg
[3]
  LD50 at 168 h: 1.5 mg/kg
[4]; 2 h, read-out: Methylphenidate antagonism ED50, 2 h
  ED50: 0.03 mg/kg
[4]; 24 h, read-out: Methylphenidate antagonism ED50, 24 h
  ED50: 0.03 mg/kg

## O[C@H]1CC[C@H](CN2CCC(=C3c4ccc(F)cc4Sc4ccc(C(F)(F)F)cc43)CC2)CC1 [Lu 13-135, 1-(trans-4-hydroxycyclohexylmethyl)-4-(2-trifluoromethyl-6-fluoro-9-thioxanthenyliden)-piperidine]
[1]
  Duration (remarks, words): very long acting; also recorded: long acting
  Strength of effect (remarks, words): strong; also recorded: very strong
[2]; rats, s.c., strongest effect within first 6 hours
  ED50: 0.4 mg/kg
[2]; in words
  Cataleptic activity: have a cataleptic activity
[5]; ip, 24 h, read-out: Amphetamine antagonism ED50
  ED50: 0.32 mg/kg
[3]; in words, compared with related thioxanthenes (b9) or piflutixol
  Acute toxicity: much lower
[3]
  LD50 at 168 h: > 60 mg/kg
[4]; [7]
  ED50: 0.32 mg/kg
[4]; [8]
  ED50: 0.19 mg/kg

## CS(=O)(=O)N[C@H]1CC[C@H](CN2CCC(=C3c4ccc(F)cc4Sc4ccc(C(F)(F)F)cc43)CC2)CC1 [Lu 16-049]
[1]
  Duration (remarks, words): long acting
  Strength of effect (remarks, words): moderately strong
[6]
  ED50: 1.7 mg/kg
[5]; po, read-out: Amphetamine antagonism ED50, p.o.
  ED50: 2.5 mg/kg
[4]; [7]
  ED50: 1 mg/kg
[4]; [8]
  ED50: 0.49 mg/kg

Source: US4285956A, “Xanthene and thioxanthene derivatives, compositions thereof and treatment therewith” (priority 1978, dated 1981)
